# Reference: US20230085307A1, “PYRIDAZINONE COMPOUND AND HERBICIDE” (NISSAN CHEMICAL CORPORATION, priority 2019, published 2023)
# What was measured:
# Chinese sprangletop = test: Test Example 3: herbicidal effect by foliage application, Wagner pot (Table 18, symbol D); assay type: in vivo, chinese sprangletop (Leptochloa chinensis); conditions: 320 g/ha
# How it was run: (§1)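 Plants were sown in alluvial soil held under 0.1–0.5 cm standing water and grown 14 days in a greenhouse at 25–30 °C. An emulsifiable formulation, water-diluted to the set dose, was then sprayed onto the foliage, and effects were scored three weeks later using previously defined criteria.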
# Japanese bulrush [1] = test: Test Example 2: herbicidal activity, application during weed generation under submerged conditions (Table 17, symbol B); assay type: in vivo, Japanese bulrush (Schoenoplectus juncoides); conditions: AAH 320 g/ha; application during weed generation, submerged conditions
# How it was run: (§2)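 Mixed weed seedlings in alluvial soil under a 4 cm water layer, greenhouse-grown at 25–30° C. Compound given as a diluted emulsion into the floodwater at the 1–2 leaf stage; response graded after three weeks.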
# late watergrass [2] = test: Test Example 1: herbicidal activity, application before weed generation under submerged conditions (Table 16, symbol A); assay type: in vivo, late watergrass (Echinochloa oryzicola); conditions: 320 g/ha applied herbicide
# How it was run: (§3)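 Emulsion formulation, water-diluted to set dose, was put onto the flooded surface (4 cm depth, alluvial soil) the same day weeds were sown and 2.5-leaf rice transplanted. After 3 weeks at 25-30 °C under glass, each species was rated 0 (≤5% kill) to 5 (≥90% kill).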
# barnyard grass [3] = test: Test Example 3: herbicidal effect by foliage application, Wagner pot (Table 18, symbol H); assay type: in vivo, barnyard grass (Echinochloa crus-galli); conditions: 320 g/ha
# How it was run: as §1
# Japanese bulrush [4] = test: Test Example 1: herbicidal activity, application before weed generation under submerged conditions (Table 16, symbol B); assay type: in vivo, Japanese bulrush (Schoenoplectus juncoides); conditions: 320 g/ha applied herbicide
# How it was run: as §3
# late watergrass [5] = test: Test Example 2: herbicidal activity, application during weed generation under submerged conditions (Table 17, symbol A); assay type: in vivo, late watergrass (Echinochloa oryzicola); conditions: AAH 320 g/ha; application during weed generation, submerged conditions
# How it was run: as §2
# oval-leafed pondweed [6] = test: Test Example 2: herbicidal activity, application during weed generation under submerged conditions (Table 17, symbol C); assay type: in vivo, oval-leafed pondweed (Monochoria vaginalis); conditions: AAH 320 g/ha; application during weed generation, submerged conditions
# How it was run: as §2
# oval-leafed pondweed [7] = test: Test Example 1: herbicidal activity, application before weed generation under submerged conditions (Table 16, symbol C); assay type: in vivo, oval-leafed pondweed (Monochoria vaginalis); conditions: 320 g/ha applied herbicide
# How it was run: as §3
# rice flat sedge = test: Test Example 3: herbicidal effect by foliage application, Wagner pot (Table 18, symbol E); assay type: in vivo, rice flat sedge (Cyperus iria); conditions: 320 g/ha
# How it was run: as §1
# windgrass [8] = test: Test Example 5: herbicidal effect by foliage application, plastic box (Table 20, symbol L); assay type: in vivo, windgrass (Apera spica-venti); conditions: foliage application, AAH 320 g/ha, three weeks after application
# How it was run: (§4)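 Foliar spray test: emulsion formulation diluted in water to a set application rate, sprayed onto 14-day-old plants raised in diluvial soil at 25° C to 30° C under glass. Both herbicidal effect and crop effect rated visually three weeks later.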
# redroot pigweed [9] = test: Test Example 4: herbicidal effect by soil treatment (Table 19, symbol N); assay type: in vivo, redroot pigweed (Amaranthus retroflexus); conditions: AAH 320 g/ha
# How it was run: (§5)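 Step 1: sow seeds in sterilized diluvial soil, cover ~1.5 cm. Step 2: spray diluted emulsion onto soil surface at predetermined rate. Step 3: greenhouse, 25–30° C, three weeks. Step 4: grade effect on each plant by earlier criteria.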
# wild oat [10] = test: Test Example 5: herbicidal effect by foliage application, plastic box (Table 20, symbol I); assay type: in vivo, wild oat (Avena fatua); conditions: foliage application, AAH 320 g/ha, three weeks after application
# How it was run: as §4
# green foxtail [11] = test: Test Example 5: herbicidal effect by foliage application, plastic box (Table 20, symbol G); assay type: in vivo, green foxtail (Setaria viridis); conditions: foliage application, AAH 320 g/ha, three weeks after application
# How it was run: as §4
# Italian ryegrass [12] = test: Test Example 5: herbicidal effect by foliage application, plastic box (Table 20, symbol K); assay type: in vivo, Italian ryegrass (Lolium multiflorum); conditions: foliage application, AAH 320 g/ha, three weeks after application
# How it was run: as §4
# velvetleaf [13] = test: Test Example 5: herbicidal effect by foliage application, plastic box (Table 20, symbol M); assay type: in vivo, velvetleaf (Abutilon theophrasti); conditions: foliage application, AAH 320 g/ha, three weeks after application
# How it was run: as §4
# wild oat [14] = test: Test Example 4: herbicidal effect by soil treatment (Table 19, symbol I); assay type: in vivo, wild oat (Avena fatua); conditions: AAH 320 g/ha
# How it was run: as §5
# chickweed [15] = test: Test Example 4: herbicidal effect by soil treatment (Table 19, symbol P); assay type: in vivo, common chickweed (Stellaria media); conditions: AAH 320 g/ha
# How it was run: as §5
# barnyard grass [16] = test: Test Example 5: herbicidal effect by foliage application, plastic box (Table 20, symbol H); assay type: in vivo, barnyard grass (Echinochloa crus-galli); conditions: foliage application, AAH 320 g/ha, three weeks after application
# How it was run: as §4
# chickweed [17] = test: Test Example 5: herbicidal effect by foliage application, plastic box (Table 20, symbol P); assay type: in vivo, common chickweed (Stellaria media); conditions: foliage application, AAH 320 g/ha, three weeks after application
# How it was run: as §4
# persian speedwell [18] = test: Test Example 5: herbicidal effect by foliage application, plastic box (Table 20, symbol R); assay type: in vivo, Persian speedwell (Veronica persica); conditions: foliage application, AAH 320 g/ha, three weeks after application
# How it was run: as §4
# redroot pigweed [19] = test: Test Example 5: herbicidal effect by foliage application, plastic box (Table 20, symbol N); assay type: in vivo, redroot pigweed (Amaranthus retroflexus); conditions: foliage application, AAH 320 g/ha, three weeks after application
# How it was run: as §4
# lambsquarters [20] = test: Test Example 4: herbicidal effect by soil treatment (Table 19, symbol O); assay type: in vivo, lambsquarters (Chenopodium album); conditions: AAH 320 g/ha
# How it was run: as §5
# persian speedwell [21] = test: Test Example 4: herbicidal effect by soil treatment (Table 19, symbol R); assay type: in vivo, Persian speedwell (Veronica persica); conditions: AAH 320 g/ha
# How it was run: as §5
# southern crabgrass [22] = test: Test Example 5: herbicidal effect by foliage application, plastic box (Table 20, symbol F); assay type: in vivo, southern crabgrass (Digitaria ciliaris); conditions: foliage application, AAH 320 g/ha, three weeks after application
# How it was run: as §4
# blackgrass [23] = test: Test Example 4: herbicidal effect by soil treatment (Table 19, symbol J); assay type: in vivo, blackgrass (Alopecurus myosuroides); conditions: AAH 320 g/ha
# How it was run: as §5
# lambsquarters [24] = test: Test Example 5: herbicidal effect by foliage application, plastic box (Table 20, symbol O); assay type: in vivo, lambsquarters (Chenopodium album); conditions: foliage application, AAH 320 g/ha, three weeks after application
# How it was run: as §4
# windgrass [25] = test: Test Example 4: herbicidal effect by soil treatment (Table 19, symbol L); assay type: in vivo, windgrass (Apera spica-venti); conditions: AAH 320 g/ha
# How it was run: as §5
# blackgrass [26] = test: Test Example 5: herbicidal effect by foliage application, plastic box (Table 20, symbol J); assay type: in vivo, blackgrass (Alopecurus myosuroides); conditions: foliage application, AAH 320 g/ha, three weeks after application
# How it was run: as §4
# green foxtail [27] = test: Test Example 4: herbicidal effect by soil treatment (Table 19, symbol G); assay type: in vivo, green foxtail (Setaria viridis); conditions: AAH 320 g/ha
# How it was run: as §5
# southern crabgrass [28] = test: Test Example 4: herbicidal effect by soil treatment (Table 19, symbol F); assay type: in vivo, southern crabgrass (Digitaria ciliaris); conditions: AAH 320 g/ha
# How it was run: as §5
# velvetleaf [29] = test: Test Example 4: herbicidal effect by soil treatment (Table 19, symbol M); assay type: in vivo, velvetleaf (Abutilon theophrasti); conditions: AAH 320 g/ha
# How it was run: as §5
# barnyard grass [30] = test: Test Example 4: herbicidal effect by soil treatment (Table 19, symbol H); assay type: in vivo, barnyard grass (Echinochloa crus-galli); conditions: AAH 320 g/ha
# How it was run: as §5
# Italian ryegrass [31] = test: Test Example 4: herbicidal effect by soil treatment (Table 19, symbol K); assay type: in vivo, Italian ryegrass (Lolium multiflorum); conditions: AAH 320 g/ha
# How it was run: as §5
compound,measurement,setting,value
C=C(C)CCOc1ccc(-c2sc3ccccc3c2-c2c(O)c(C)nn(C)c2=O)cc1 [1-210],"herbicidal effect on D (Chinese sprangletop), rating 0-5",Chinese sprangletop,5 (Herbicidal rate of 90% or more (almost completely withered))
same,"herbicidal effect rating, B: Japanese bulrush",Japanese bulrush [1],3 (Herbicidal rate of 40% or more and less than 70%)
same,Herbicidal effect on A: late watergrass (grade 0-5),late watergrass [2],5 (Herbicidal rate of 90% or more (almost completely withered))
same,"herbicidal effect on H (barnyard grass), rating 0-5",barnyard grass [3],5 (Herbicidal rate of 90% or more (almost completely withered))
same,Herbicidal effect on B: Japanese bulrush (grade 0-5),Japanese bulrush [4],5 (Herbicidal rate of 90% or more (almost completely withered))
same,"herbicidal effect rating, A: late watergrass",late watergrass [5],3 (Herbicidal rate of 40% or more and less than 70%)
same,"herbicidal effect rating, C: oval-leafed pondweed",oval-leafed pondweed [6],4 (Herbicidal rate of 70% or more and less than 90%)
same,Herbicidal effect on C: oval-leafed pondweed (grade 0-5),oval-leafed pondweed [7],5 (Herbicidal rate of 90% or more (almost completely withered))
same,"herbicidal effect on E (rice flat sedge), rating 0-5",rice flat sedge,4 (Herbicidal rate of 70% or more and less than 90%)
Cc1nn(C)c(=O)c(-c2c(-c3ccccc3OCC(F)(F)F)sc3ccccc23)c1O [1-118],"L: windgrass, herbicidal effect",windgrass [8],5 (Herbicidal rate of 90% or more (almost completely withered))
same,"N: redroot pigweed, herbicidal effect rating",redroot pigweed [9],5 (Herbicidal rate of 90% or more (almost completely withered))
same,"herbicidal effect on D (Chinese sprangletop), rating 0-5",Chinese sprangletop,2 (Herbicidal rate of 20% or more and less than 40%)
same,"I: wild oat, herbicidal effect",wild oat [10],4 (Herbicidal rate of 70% or more and less than 90%)
same,"G: green foxtail, herbicidal effect",green foxtail [11],5 (Herbicidal rate of 90% or more (almost completely withered))
same,"K: Italian ryegrass, herbicidal effect",Italian ryegrass [12],4 (Herbicidal rate of 70% or more and less than 90%)
same,"M: velvetleaf, herbicidal effect",velvetleaf [13],5 (Herbicidal rate of 90% or more (almost completely withered))
same,"I: wild oat, herbicidal effect rating",wild oat [14],3 (Herbicidal rate of 40% or more and less than 70%)
same,"herbicidal effect rating, B: Japanese bulrush",Japanese bulrush [1],0 (Herbicidal rate of 5% or less (almost no effect))
same,"P: chickweed, herbicidal effect rating",chickweed [15],3 (Herbicidal rate of 40% or more and less than 70%)
same,"H: barnyard grass, herbicidal effect",barnyard grass [16],2 (Herbicidal rate of 20% or more and less than 40%)
same,"P: chickweed, herbicidal effect",chickweed [17],5 (Herbicidal rate of 90% or more (almost completely withered))
same,"herbicidal effect on H (barnyard grass), rating 0-5",barnyard grass [3],4 (Herbicidal rate of 70% or more and less than 90%)
same,"R: persian speedwell, herbicidal effect",persian speedwell [18],5 (Herbicidal rate of 90% or more (almost completely withered))
same,"N: redroot pigweed, herbicidal effect",redroot pigweed [19],5 (Herbicidal rate of 90% or more (almost completely withered))
same,"herbicidal effect rating, A: late watergrass",late watergrass [5],3 (Herbicidal rate of 40% or more and less than 70%)
same,"O: lambsquarters, herbicidal effect rating",lambsquarters [20],5 (Herbicidal rate of 90% or more (almost completely withered))
same,"R: persian speedwell, herbicidal effect rating",persian speedwell [21],4 (Herbicidal rate of 70% or more and less than 90%)
same,"F: southern crabgrass, herbicidal effect",southern crabgrass [22],5 (Herbicidal rate of 90% or more (almost completely withered))
same,"herbicidal effect rating, C: oval-leafed pondweed",oval-leafed pondweed [6],0 (Herbicidal rate of 5% or less (almost no effect))
same,"J: blackgrass, herbicidal effect rating",blackgrass [23],3 (Herbicidal rate of 40% or more and less than 70%)
same,"O: lambsquarters, herbicidal effect",lambsquarters [24],3 (Herbicidal rate of 40% or more and less than 70%)
same,"herbicidal effect on E (rice flat sedge), rating 0-5",rice flat sedge,2 (Herbicidal rate of 20% or more and less than 40%)
same,"L: windgrass, herbicidal effect rating",windgrass [25],3 (Herbicidal rate of 40% or more and less than 70%)
same,"J: blackgrass, herbicidal effect",blackgrass [26],4 (Herbicidal rate of 70% or more and less than 90%)
same,"G: green foxtail, herbicidal effect rating",green foxtail [27],3 (Herbicidal rate of 40% or more and less than 70%)
same,"F: southern crabgrass, herbicidal effect rating",southern crabgrass [28],1 (Herbicidal rate of 5% or more and less than 20%)
same,"M: velvetleaf, herbicidal effect rating",velvetleaf [29],3 (Herbicidal rate of 40% or more and less than 70%)
same,"H: barnyard grass, herbicidal effect rating",barnyard grass [30],4 (Herbicidal rate of 70% or more and less than 90%)
same,"K: Italian ryegrass, herbicidal effect rating",Italian ryegrass [31],0 (Herbicidal rate of 5% or less (almost no effect))
